Literature values as cited in publication PMC8127065 (Journal of controlled release : official journal of the …, 2021).

water solubility: 1 to 2 µg/mL
SMILES: C=CC[C@@H]1/C=C(\C)C[C@H](C)C[C@H](OC)[C@H]2O[C@@](O)(C(=O)C(=O)N3CCCC[C@H]3C(=O)O[C@H](/C(C)=C/[C@@H]3CC[C@@H](O)[C@H](OC)C3)[C@H](C)[C@@H](O)CC1=O)[C@H](C)C[C@@H]2OC [Tacrolimus]
